Measurements: patent publication US5885834A, “Antisense oligodeoxynucleotide against phosphodiesterase” (priority 1997, dated 1999)
Entries after “also recorded” stand apart in the source; their conditions may differ.

How the values were obtained:
PHA-stimulated HPBL = test: TUNEL assay of apoptosis, flow cytometry, PHA-stimulated HPBL; type: cell-based, human; settings: 10 μg/ml PHA-P; 30 μM ODN; 3 days
Description: Nevertheless, the effects of AS ODNs on HPBL can still be tested by quantifying and comparing the percentage of cells undergoing apoptosis in the presence and absence of the AS ODN. Apoptosis detected by examining endonuclease-digested DNA, commonly referred to as the DNA laddering technique, has been employed and the results therefrom are set forth in FIG. 5. However, we prefer to use a TUNEL assay, an acronym for terminal deoxynucleotidyl transferase (TdT)-mediated dUTP nick end labeling, which more readily allows quantitation of the percentage of cells undergoing apoptosis. The principle of the TUNEL assay is that endonuclease digestion during apoptosis results in the formation of 3'-OH ends in the digested DNA. The digested DNA in the apoptotic cells can then be labeled with fluorescein by catalytically incorporating fluorescein-12-dUTP at the 3'-OH ends using the TdT enzyme. Fluorescence can then be quantitated by flow cytometry, using a fluorescence activated cell sorter (FACS), which would give a measure of the number of cells undergoing apoptosis. An example of the appearance of a population of fluorescein labeled apoptotic cells, as evidenced by flow cytometry, following TUNEL assay labeling of the cells, is shown in FIGS. 6A-C. […]

[1] = tested on: PDE1 activity in RPMI 8392 cells; test: CaM-stimulated PDE (PDE1) activity in cells after ODN treatment; type: cell-based, human; settings: for PDE1 (CaM-stimulated PDE) activity: 3 days
Procedure: Cells were grown to a density of about 10^6 /ml, collected by centrifugation (1200×g, 10 min), resuspended in I ml of homogenization buffer containing 40 mM Tris/HCl (pH 7.5), 1 mM EDTA, 1 mM DTT, 35 μg/ml phenylmethylsulfonyl fluoride, 15 mM benzamidine, 1 μg/ml leupeptin, 1 μg/ml antipain, 1 μg/ml pepstatin, and 1 μg/ml aprotinin, homogenized with 20 strokes of a Dounce glass-on-glasshomogenizer and assayed for PDE activity, using 1 μM cAMP as substrate, as described previously. Data points represent the means of 2 to 10 separate determinations. […] Control activity was 1.66±0.14 pmol/min/10^6 cells (mean±S.E.M.; n=8) in the absence and 4.80±0.42 pmol/min/10^6 cells (mean±S.E.M.; n=10) in the presence of Ca^2+ and calmodulin.
RPMI 8392 cells were grown and treated with AS and NS ODN as described in the legend to FIG. 2. Cells were then collected at daily intervals and assayed for PDE activity as described in FIG. 10. Results represent the mean±the range of duplicate determinations. Control activities (pmol/min/10^6 cells) were 1.17, 1.34, and 1.50 in the absence, and 3.83, 4.34, and 3.79 in the presence of Ca^2+ and calmodulin at days 1, 2, and 3, respectively.

Substance	Apoptosis in PHA-stimulated HPBL (TUNEL) (PHA-stimulated HPBL)	PDE1 (CaM-stimulated PDE) activity ([1]; 10 or 30 μM ODN)	PDE1 activity ([1]; 10 or 30 μM ODN, time not specified)	PDE1 activity ([1]; 30 μM ODN, 2 days)
5'-TACGTGAGGCACCTACGC-3' (phosphorothioate, further chemistry not given here) [NS ODN, control phosphorothioate nonsense ODN, same base composition as the AS ODN in random, scrambled order]	do not show the appearance of this population; also recorded: no effect	relatively unchanged	little or no effect	
5'-GGACAGCTCCATGCTCAG-3' (phosphorothioate, further chemistry not given here) [AS ODN, 18 nt phosphorothioate antisense oligodeoxynucleotide targeted against the translation initiation region of PDE1B1]	show the appearance of a population of highly fluorescein labeled cells; also recorded: induced apoptosis	undetectable; also recorded: disappear completely		noticeably diminished
